Results taken from PubChem BioAssay (NCI).
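GI50 = concentration required for 50% inhibition of growth. Definition used: TGI = concentration required for complete inhibition of growth.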

Experiments:
Assay in all cases: inhibition of tumour cell growth, NCI panel, 384-well format
COLO 205 colon = test system: COLO 205 colon
MOLT-4 leukemia = test system: MOLT-4 leukemia
SNB-19 CNS = test system: SNB-19 CNS
SK-MEL-5 melanoma = test system: SK-MEL-5 melanoma
MALME-3M melanoma = test system: MALME-3M melanoma
NCI-H23 lung = test system: NCI-H23 lung
TK-10 renal = test system: TK-10 renal
MCF7 breast = test system: MCF7 breast
HS 578T breast = test system: HS 578T breast
SK-MEL-2 melanoma = test system: SK-MEL-2 melanoma
NCI-H226 lung = test system: NCI-H226 lung
UO-31 renal = test system: UO-31 renal
OVCAR-3 ovarian = test system: OVCAR-3 ovarian
NCI-H522 lung = test system: NCI-H522 lung
HOP-62 NSCLC = test system: HOP-62 NSCLC
M14 melanoma = test system: M14 melanoma
HL-60(TB) leukemia = test system: HL-60(TB) leukemia
786-0 renal = test system: 786-0 renal
NCI-H322M lung = test system: NCI-H322M lung
OVCAR-8 ovarian = test system: OVCAR-8 ovarian
SF-295 CNS = test system: SF-295 CNS
NCI-H460 NSCLC = test system: NCI-H460 NSCLC
U251 glioblastoma = test system: U251 glioblastoma
DU-145 prostate = test system: DU-145 prostate
SK-OV-3 ovarian = test system: SK-OV-3 ovarian
SNB-75 CNS = test system: SNB-75 CNS
SR leukemia = test system: SR leukemia
RXF 393 renal = test system: RXF 393 renal
PC-3 prostate = test system: PC-3 prostate
SF-268 CNS = test system: SF-268 CNS
A498 renal = test system: A498 renal
MDA-MB-231 breast = test system: MDA-MB-231 breast
LOX IMVI melanoma = test system: LOX IMVI melanoma
MDA-MB-435 melanoma = test system: MDA-MB-435 melanoma
UACC-62 melanoma = test system: UACC-62 melanoma
ACHN renal = test system: ACHN renal
A549 NSCLC = test system: A549 NSCLC
HOP-92 NSCLC = test system: HOP-92 NSCLC
HCT-15 colon = test system: HCT-15 colon
HCC-2998 colon = test system: HCC-2998 colon
CCRF-CEM leukemia = test system: CCRF-CEM leukemia
OVCAR-4 ovarian = test system: OVCAR-4 ovarian
OVCAR-5 ovarian = test system: OVCAR-5 ovarian
T-47D breast = test system: T-47D breast
EKVX NSCLC = test system: EKVX NSCLC
SF-539 CNS = test system: SF-539 CNS
RPMI-8226 leukemia = test system: RPMI-8226 leukemia

Which GI50 (COLO 205 colon) does the source give for `C[C@@H](c1ccc2nccn2c1)n1nnc2ncc(-c3cnn(C)c3)nc21` here?
Its GI50 is greater than 100 µM.

And the TGI (COLO 205 colon)?
The TGI was greater than 100 µM.

What about the GI50 (MOLT-4 leukemia) of the same molecule?
The GI50 was 51.5 µM.

What about the TGI (MOLT-4 leukemia) of the same molecule?
The TGI was greater than 100 µM.

And the GI50 (SNB-19 CNS)?
Its GI50 is greater than 100 µM.

And the TGI (SNB-19 CNS)?
Its TGI is greater than 100 µM.

And the GI50 (SK-MEL-5 melanoma)?
Its GI50 is greater than 92.7 µM.

What about the TGI (SK-MEL-5 melanoma) of the same molecule?
Its TGI is greater than 100 µM.

What about the GI50 (MALME-3M melanoma) of the same molecule?
Its GI50 is greater than 100 µM.

What about the TGI (MALME-3M melanoma) of the same molecule?
The TGI was greater than 100 µM.

What about the GI50 (NCI-H23 lung) of the same molecule?
Its GI50 is 20.6 µM.

And the TGI (NCI-H23 lung)?
Its TGI is greater than 100 µM.

And the GI50 (TK-10 renal)?
Its GI50 is greater than 100 µM.

What about the TGI (TK-10 renal) of the same molecule?
Its TGI is greater than 100 µM.

What about the GI50 (MCF7 breast) of the same molecule?
Its GI50 is greater than 100 µM.

And the TGI (MCF7 breast)?
Its TGI is greater than 100 µM.

What about the GI50 (HS 578T breast) of the same molecule?
The GI50 was greater than 100 µM.

And the TGI (HS 578T breast)?
The TGI was greater than 100 µM.

What about the GI50 (SK-MEL-2 melanoma) of the same molecule?
The GI50 was greater than 100 µM.

What about the TGI (SK-MEL-2 melanoma) of the same molecule?
Its TGI is greater than 100 µM.

And the GI50 (NCI-H226 lung)?
The GI50 was greater than 100 µM.

What about the TGI (NCI-H226 lung) of the same molecule?
Its TGI is greater than 100 µM.

What about the GI50 (UO-31 renal) of the same molecule?
The GI50 was greater than 100 µM.

And the TGI (UO-31 renal)?
Its TGI is greater than 100 µM.

And the GI50 (OVCAR-3 ovarian)?
The GI50 was greater than 100 µM.

And the TGI (OVCAR-3 ovarian)?
Its TGI is greater than 100 µM.

What about the GI50 (NCI-H522 lung) of the same molecule?
The GI50 was greater than 75.5 µM.

What about the TGI (NCI-H522 lung) of the same molecule?
Its TGI is greater than 100 µM.

And the GI50 (HOP-62 NSCLC)?
The GI50 was greater than 92.4 µM.

What about the TGI (HOP-62 NSCLC) of the same molecule?
Its TGI is greater than 100 µM.

What about the GI50 (M14 melanoma) of the same molecule?
Its GI50 is greater than 100 µM.

What about the TGI (M14 melanoma) of the same molecule?
Its TGI is greater than 100 µM.

And the GI50 (HL-60(TB) leukemia)?
The GI50 was greater than 92.2 µM.

And the TGI (HL-60(TB) leukemia)?
The TGI was greater than 100 µM.

And the GI50 (786-0 renal)?
The GI50 was greater than 100 µM.

And the TGI (786-0 renal)?
The TGI was greater than 100 µM.

What about the GI50 (NCI-H322M lung) of the same molecule?
The GI50 was greater than 100 µM.

And the TGI (NCI-H322M lung)?
The TGI was greater than 100 µM.

What about the GI50 (OVCAR-8 ovarian) of the same molecule?
Its GI50 is greater than 100 µM.

What about the TGI (OVCAR-8 ovarian) of the same molecule?
The TGI was greater than 100 µM.

What about the GI50 (SF-295 CNS) of the same molecule?
The GI50 was 25.2 µM.

What about the TGI (SF-295 CNS) of the same molecule?
The TGI was greater than 100 µM.

What about the GI50 (NCI-H460 NSCLC) of the same molecule?
The GI50 was greater than 100 µM.

What about the TGI (NCI-H460 NSCLC) of the same molecule?
The TGI was greater than 100 µM.

And the GI50 (U251 glioblastoma)?
Its GI50 is greater than 100 µM.

And the TGI (U251 glioblastoma)?
Its TGI is greater than 100 µM.

And the GI50 (DU-145 prostate)?
Its GI50 is greater than 100 µM.

And the TGI (DU-145 prostate)?
Its TGI is greater than 100 µM.

And the GI50 (SK-OV-3 ovarian)?
The GI50 was greater than 100 µM.

And the TGI (SK-OV-3 ovarian)?
Its TGI is greater than 100 µM.

And the GI50 (SNB-75 CNS)?
The GI50 was greater than 76.8 µM.

What about the TGI (SNB-75 CNS) of the same molecule?
The TGI was greater than 100 µM.

What about the GI50 (SR leukemia) of the same molecule?
Its GI50 is 43.3 µM.

What about the TGI (SR leukemia) of the same molecule?
Its TGI is greater than 100 µM.

What about the GI50 (RXF 393 renal) of the same molecule?
Its GI50 is greater than 75.4 µM.

And the TGI (RXF 393 renal)?
The TGI was greater than 100 µM.

What about the GI50 (PC-3 prostate) of the same molecule?
Its GI50 is greater than 100 µM.

What about the TGI (PC-3 prostate) of the same molecule?
The TGI was greater than 100 µM.

And the GI50 (SF-268 CNS)?
Its GI50 is greater than 100 µM.

What about the TGI (SF-268 CNS) of the same molecule?
The TGI was greater than 100 µM.

And the GI50 (A498 renal)?
Its GI50 is greater than 100 µM.

And the TGI (A498 renal)?
The TGI was greater than 100 µM.

What about the GI50 (MDA-MB-231 breast) of the same molecule?
The GI50 was greater than 100 µM.

And the TGI (MDA-MB-231 breast)?
Its TGI is greater than 100 µM.

What about the GI50 (LOX IMVI melanoma) of the same molecule?
Its GI50 is greater than 65.9 µM.

And the TGI (LOX IMVI melanoma)?
Its TGI is greater than 100 µM.

And the GI50 (MDA-MB-435 melanoma)?
The GI50 was greater than 100 µM.

What about the TGI (MDA-MB-435 melanoma) of the same molecule?
Its TGI is greater than 100 µM.

What about the GI50 (UACC-62 melanoma) of the same molecule?
The GI50 was greater than 100 µM.

What about the TGI (UACC-62 melanoma) of the same molecule?
Its TGI is greater than 100 µM.

And the GI50 (ACHN renal)?
The GI50 was greater than 100 µM.

And the TGI (ACHN renal)?
Its TGI is greater than 100 µM.

What about the GI50 (A549 NSCLC) of the same molecule?
The GI50 was greater than 100 µM.

And the TGI (A549 NSCLC)?
The TGI was greater than 100 µM.

And the GI50 (HOP-92 NSCLC)?
Its GI50 is greater than 100 µM.

And the TGI (HOP-92 NSCLC)?
Its TGI is greater than 100 µM.

And the GI50 (HCT-15 colon)?
The GI50 was greater than 100 µM.

What about the TGI (HCT-15 colon) of the same molecule?
Its TGI is greater than 100 µM.

And the GI50 (HCC-2998 colon)?
Its GI50 is greater than 100 µM.

And the TGI (HCC-2998 colon)?
Its TGI is greater than 100 µM.

What about the GI50 (CCRF-CEM leukemia) of the same molecule?
Its GI50 is greater than 71.6 µM.

What about the TGI (CCRF-CEM leukemia) of the same molecule?
Its TGI is greater than 100 µM.

And the GI50 (OVCAR-4 ovarian)?
The GI50 was greater than 94.4 µM.

And the TGI (OVCAR-4 ovarian)?
The TGI was greater than 100 µM.

And the GI50 (OVCAR-5 ovarian)?
Its GI50 is greater than 100 µM.

What about the TGI (OVCAR-5 ovarian) of the same molecule?
The TGI was greater than 100 µM.

What about the GI50 (T-47D breast) of the same molecule?
The GI50 was greater than 61.2 µM.

And the TGI (T-47D breast)?
Its TGI is greater than 100 µM.

What about the GI50 (EKVX NSCLC) of the same molecule?
Its GI50 is greater than 100 µM.

What about the TGI (EKVX NSCLC) of the same molecule?
Its TGI is greater than 100 µM.

What about the GI50 (SF-539 CNS) of the same molecule?
The GI50 was greater than 100 µM.

And the TGI (SF-539 CNS)?
The TGI was greater than 100 µM.

What about the GI50 (RPMI-8226 leukemia) of the same molecule?
The GI50 was greater than 68.8 µM.

And the TGI (RPMI-8226 leukemia)?
Its TGI is greater than 100 µM.
